Source: ChEMBL document CHEMBL1201862, “PubChem BioAssay data set” (2004)
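Five concentrations, 48 hours, 96-well plates. The concentration for 50% growth inhibition is given as GI50.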 Active and inactive are the calls of the source. Cut-off read from the data, not from the text of the source: active = GI50 up to about 1.1 µM and inactive = higher.

Experiments:
Experiment in all cases: NCI-60 cell line screen, 48 h
MDA-N = tested on: MDA-N
TK-10 = tested on: TK-10
DU-145 = tested on: DU-145
SR = tested on: SR
KM12 = tested on: KM12
SF-268 = tested on: SF-268
A498 = tested on: A498
SF-295 = tested on: SF-295
U-251 = tested on: U-251
SNB-19 = tested on: SNB-19
CCRF-CEM = tested on: CCRF-CEM
M14 = tested on: M14
SK-MEL-2 = tested on: SK-MEL-2
K562 = tested on: K562
NCI-H522 = tested on: NCI-H522
OVCAR-3 = tested on: OVCAR-3
UO-31 = tested on: UO-31
SNB-75 = tested on: SNB-75
MDA-MB-231 = tested on: MDA-MB-231
MDA-MB-435 = tested on: MDA-MB-435

Measured: GI50

NCCc1nc(-c2nc(C(=O)O)cs2)cs1
inactive: MDA-N > 100 µM | TK-10 > 100 µM | DU-145 > 100 µM | SR > 100 µM | KM12 > 100 µM | SF-268 > 100 µM | A498 > 100 µM | SF-295 > 100 µM | U-251 > 100 µM | SNB-19 > 100 µM | CCRF-CEM > 100 µM | M14 > 100 µM | SK-MEL-2 > 100 µM | K562 > 100 µM | NCI-H522 > 100 µM | OVCAR-3 > 100 µM | UO-31 > 100 µM | SNB-75 > 100 µM | MDA-MB-231 > 100 µM | MDA-MB-435 > 100 µM

COc1nc2ncc([C@@H](O)[C@H](O)CO)nc2c(=O)[nH]1
inactive: MDA-N > 100 µM | TK-10 > 100 µM | DU-145 > 100 µM | SR > 100 µM | KM12 > 100 µM | SF-268 > 100 µM | A498 > 100 µM | SF-295 > 100 µM | U-251 > 100 µM | SNB-19 > 100 µM | CCRF-CEM > 100 µM | M14 > 100 µM | SK-MEL-2 > 100 µM | K562 > 100 µM | NCI-H522 > 100 µM | OVCAR-3 > 100 µM | UO-31 > 100 µM | SNB-75 > 100 µM | MDA-MB-231 > 100 µM | MDA-MB-435 > 100 µM

CN(C)CCNC(=O)Cn1cc([N+](=O)[O-])c(=O)c2ccccc21
inactive: MDA-N > 100 µM | TK-10 > 100 µM | DU-145 > 100 µM | SR > 100 µM | KM12 > 100 µM | SF-268 > 100 µM | A498 > 100 µM | SF-295 > 100 µM | U-251 > 100 µM | SNB-19 > 100 µM | CCRF-CEM > 100 µM | M14 > 100 µM | SK-MEL-2 > 100 µM | K562 > 100 µM | NCI-H522 > 100 µM | OVCAR-3 > 100 µM | UO-31 > 100 µM | SNB-75 58.3 µM | MDA-MB-231 > 100 µM | MDA-MB-435 > 100 µM

CC(=N\N)/C(C)=N/N=C(C)/C(C)=N/N
inactive: MDA-N > 100 µM | TK-10 > 100 µM | DU-145 > 100 µM | SR > 100 µM | KM12 > 100 µM | SF-268 > 100 µM | A498 > 100 µM | SF-295 > 100 µM | U-251 > 100 µM | SNB-19 > 100 µM | CCRF-CEM > 100 µM | M14 > 100 µM | SK-MEL-2 > 100 µM | K562 > 10 µM | NCI-H522 > 100 µM | OVCAR-3 > 100 µM | UO-31 > 100 µM | SNB-75 > 100 µM | MDA-MB-231 > 100 µM | MDA-MB-435 > 100 µM

CCOc1cc2c(NCCCN(CCO)CCO)ncnc2c(OCC)c1OCC
inactive: MDA-N > 100 µM | TK-10 > 100 µM | DU-145 > 100 µM | SR > 100 µM | KM12 > 100 µM | SF-268 > 100 µM | A498 > 73.5 µM | SF-295 > 100 µM | U-251 > 100 µM | SNB-19 > 100 µM | CCRF-CEM > 100 µM | M14 > 83.2 µM | SK-MEL-2 > 87.3 µM | K562 > 100 µM | NCI-H522 > 100 µM | OVCAR-3 > 100 µM | UO-31 > 100 µM | SNB-75 > 74.8 µM | MDA-MB-231 > 93.1 µM | MDA-MB-435 > 100 µM

CN1CCCC(C(=O)OCC(=O)C2(O)CCC3C4CCC5=CC(=O)CCC5(C)C4C(O)CC32C)C1 (stereo not given)
inactive: MDA-N 10.7 µM | TK-10 12.5 µM | DU-145 18.7 µM | SR 1.96 µM | KM12 25.2 µM | SF-268 20.9 µM | A498 16.4 µM | SF-295 19.9 µM | U-251 4.29 µM | SNB-19 8.05 µM | CCRF-CEM 4.9 µM | M14 23.2 µM | SK-MEL-2 19.5 µM | K562 9.12 µM | NCI-H522 17.3 µM | OVCAR-3 17 µM | UO-31 8.11 µM | SNB-75 4.85 µM | MDA-MB-231 4.32 µM | MDA-MB-435 12.6 µM

COc1ccc(C2C(C#N)=C(S)N(C3OC(CO)C(O)C(O)C3O)C(C)=C2C(C)=O)cc1 (stereo not given)
inactive: MDA-N 72.3 µM | TK-10 > 100 µM | DU-145 > 100 µM | SR 56.9 µM | KM12 > 100 µM | SF-268 > 100 µM | A498 > 100 µM | SF-295 > 100 µM | U-251 > 100 µM | SNB-19 > 100 µM | CCRF-CEM > 100 µM | M14 > 100 µM | SK-MEL-2 > 100 µM | K562 59.4 µM | NCI-H522 60.4 µM | OVCAR-3 47.3 µM | UO-31 > 100 µM | SNB-75 42.7 µM | MDA-MB-231 > 100 µM | MDA-MB-435 > 100 µM

CCCCN1C(=O)C2Cc3c([nH]c4ccccc34)C(c3cccc(O)c3)N2C1=O (stereo not given)
inactive: MDA-N 19.2 µM | TK-10 18.3 µM | DU-145 18.6 µM | SR 20.5 µM | KM12 19.4 µM | SF-268 19.1 µM | A498 18.5 µM | SF-295 17.4 µM | U-251 19 µM | SNB-19 19.1 µM | CCRF-CEM 18.2 µM | M14 18.3 µM | SK-MEL-2 18 µM | K562 20.2 µM | NCI-H522 20 µM | OVCAR-3 16.3 µM | UO-31 17.5 µM | SNB-75 18.5 µM | MDA-MB-231 15.5 µM | MDA-MB-435 17.3 µM

O=C1Nc2c(Cl)cc(Cl)cc2/C1=N/Nc1ccccc1[N+](=O)[O-]
inactive: MDA-N > 100 µM | TK-10 22.6 µM | DU-145 > 100 µM | SR 5.45 µM | KM12 88.9 µM | SF-268 25.1 µM | A498 55.7 µM | SF-295 11.7 µM | U-251 6.85 µM | SNB-19 23.7 µM | CCRF-CEM 46 µM | M14 39.3 µM | SK-MEL-2 18.2 µM | K562 38.6 µM | NCI-H522 35.2 µM | OVCAR-3 50.7 µM | UO-31 > 100 µM | SNB-75 4.28 µM | MDA-MB-231 18.3 µM | MDA-MB-435 > 100 µM
